Results taken from patent US20070167527A1, “MEMANTINE FOR THE NORMALIZATION OF VISUAL ACUITY DEFICITS” (priority 2006, published 2007).

Assays:
rabbits = test: Visual acuity by sweep visual evoked potential (swVEP) in conscious rabbits after transient IOP elevation; type: in vivo, rabbit; conditions: 4.5 months after transient IOP elevation; 2.5 kg rabbits pre-treated with oral dose of 50 mg memantine; compared with 50 mg sugar placebo (reduction in acuity)
Method: This invention is especially useful in the use of memantine to normalize visual acuity deficits from outer retina (photoreceptor/RPE) injury.
(§1) Rabbits were anesthetized with isofluorane, and prepared for unilateral acute retinal ischemia by raising IOP in the OD eye by 120 mm Hg for 45 minutes. To accomplish this, a reservoir with PBS was suspended 65 inches above the eye and connected to a 30 gauge needle inserted through the cornea into the anterior chamber. A drop of topical anesthetic (proparacaine) was placed upon the cornea prior to needle insertion.
swVEP is an electrophysiological technique for assessing visual acuity in young children who can't read the Snellen eye charts. Pattern reversal images of increasing spatial frequency are projected onto the macula while simultaneously recording electrical activity (VEP) from the scalp. Images with lower spatial frequency generate large signals which get smaller as the spatial frequency increases, until signal=noise; this threshold is the visual acuity. […]
Vertical steady-state pattern-reversal sweep stimulus at spatial frequency range of 0.1 to 5 cycles per degree at a temporal frequency of 7.5 Hz were applied to the eye at mean luminance of 600 cd/m2 and contrast of 80%. […] Trials were averaged and the threshold (visual acuity) was determined by software or manual fitting at signal-to-noise ration no less than 2.5. […]

retinal cells = test: Histology (H&E) examination of eyes after transient IOP elevation; type: in vivo, rabbit; conditions: compared with the placebo group (patchy loss of predominantly outer retina cells)
Method: as §1, with “This invention is especially useful in the use of memantine to normalize visual acuity deficits from outer retina (photoreceptor/RPE) injury. […] Retinal cell degeneration was less in the memantine group compared with the placebo group. Rabbits” for “Rabbits”

CC12CC3CC(C)(C1)CC(N)(C3)C2 [memantine]
visual acuity (rabbits): normal visual acuities | retinal cell degeneration (retinal cells): less
